Laboratory results reported in patent publication US20260265696A1, “HUMAN IPSC DERIVED AMELOBLASTS AND USES THEREOF” (UNIVERSITY OF WASHINGTON, priority 2021, published 2026).

System: hiPSCs (WTC-11) differentiating to ameloblasts (iAM)
Assay: AMBN expression (QRT-PCR) in hiPSC-derived ameloblast (iAM) differentiation, day 10 to day 16, factors removed or added
Assay type: cell-based, human
Settings: for expression of AMBN when the factor is removed: factor removed independently from differentiation day 10 to day 16, compared to when all factors are present
Experimental: FIGS. 7A-7E: (FIG. 7A) Schematic of the 16-day differentiation protocol produced, which targets the identified signaling pathways utilizing growth factors and small molecules to transition through the ameloblast developmental trajectory. […] Each study was performed in triplicate, with error bars representing SEM. (FIG. 7C) The efficiency of each pathway activated in the differentiation from day 10 to day 16 were assessed by removing each agonist one at a time or adding FGFR2 mini binder to inhibit the FGFR2 pathway. AMBN expression was assessed in QRT-PCR, and each condition was performed in triplicate. Significance was determined by unpaired Student's t-test; ***p<0.001; ****p<0.0001; Graph error bars are the means±SEM.
To dissect which pathways were essential for the differentiation from day 10 to day 16, the process of elimination was used (FIG. 7C). […] It was hypothesized that the cells in culture secrete enough FGF ligands to saturate the receptors, and any exogenous ligands would have minimal effects. To test this hypothesis, a computationally designed protein was used, FGFR2 mini-binder (FGFR-mb), that specifically binds and inhibits the activity of the FGFR2 (Cao et al., 2022). […] This marks the importance of highly specific AI-designed mini-proteins in analyzing the requirement of signaling pathways in differentiation. It is plausible that temporal preciseness and high penetrance, combined with specificity of designed mini-binders to their targets may partially out-compete in the future genetic perturbations of signaling pathway in iPSC derived differentiation paradigms.
Briefly, hiPSCs (WTC-11 human induced pluripotent stem cells) (Coriell, #GM25256) were seeded on 12-well plates coated with growth factor-reduced Matrigel (Corning, #356231) and cultured in mTeSR1 stem cell medium (StemCell Technologies, #85850) until cells reach confluency with medium changes daily. On the first day of differentiation (deemed Day 0), stem cell media is replaced with ameloblast base media consisted of either EpiCult-C media (StemCell Technologies, #05630) or RPMI 1640 Medium (Thermo, #11875093) mixed with EpiLife (Thermo, #MEPI500CA) at 1:1 ratio, supplemented with 0.1× supplement S7 (Thermo, #S0175), 0.1 uM β-mercaptoethanol (BME) (Sigma, #M7522) and 400 um smoothened agonist (SAG) (Selleckchem, #S7779). At day 3 of differentiation 150 μM of bone morphogenic protein-4 (BMP4) (rndsystems, #314-BP-010) is continuously added daily till day 7. At day 8, the base media is supplemented with 1 uM of BMP-I inhibitor (LDN-193189) (Tocris, #6053), 5 uM of GSK3-Inhibitor (CHIR99021) (Selleckchem, #4423), 500 μM epidermal growth factor (EGF) (rndsystems, #236-EG) and 3.5 μM of Neurotrophin-4 (NT4) (rndsystems, #268-N4). The cultures were then harvested at day 10 at an oral epithelium stage, or extended to day 16 by adding 300 μM BMP4, and 800 nM transforming growth factor beta 1(TGFβ1) (rndsystems, #7754-BH) for the early ameloblast stage at day 16. For testing FGFR signaling requirement for the maturation process we added 50 nM purified FGFR-mb (see below) to the media at day 14 and harvested the samples at day 16 of the differentiation.
RNA was extracted using Trizol (Life Technologies) according to manufacturer's instructions. RNA samples were treated with Turbo DNase (Thermo Fisher Scientific) and quantified using Nanodrop ND-1000. Reverse transcription was performed using iScript cDNA Synthesis Kit (Bio-Rad). […]

| Compound | expression of AMBN when the factor is removed | AMBN expression on adding bFGF (bFGF added to differentiation day 10 to day 16) |
| --- | --- | --- |
| Cc1cnc(-c2cnc(NCCNc3ccc(C#N)cn3)nc2-c2ccc(Cl)cc2Cl)[nH]1 [GSKi, 6-[[2-[[4-(2,4-dichlorophenyl)-5-(5-methyl-1H-imidazol-2-yl)-2-pyrimidinyl]amino]ethyl]amino]-3-pyridinecarbonitrile, reference compound] | completely abolished AMBN expression | – |
| CN[C@H]1CC[C@H](N(Cc2cccc(-c3ccncc3)c2)C(=O)c2sc3ccccc3c2Cl)CC1 [SAG, 3-chloro-N-[(1r,4r)-4-(methylamino)cyclohexyl]-N-[3-(pyridin-4-yl)benzyl]benzo[b]thiophene-2-carboxamide, reference compound] | significantly reduced to less than half | – |
| EGF: epidermal growth factor (NSDSECPLSHDGYCLHDGVCMYIEALDKYACNCVVGYIGERCQYRDLKWWELR; Epidermal growth factor; UniProt P01133 971-1023, looked up) | significantly reduced to less than half | – |
| TGFβ1: transforming growth factor beta 1 | significantly reduced to less than half | – |
| bFGF: exogenous FGF ligand added to the differentiation | – | no significant effect |
